The text below walks through data of patent US9556165B2 (priority 2012, dated 2017).

Converted amounts (≈) assume the structure as drawn. Where two headings read alike, the source gives them in different places.

Holding throughout (type): cell-based
The test system of assay [1] is M. morganii 126/3048. Description: MIC determination, broth microdilution (CLSI). The conditions noted are these: Morganella morganii, 126/3048, strain 5. For orientation: In broth dilution the organism is exposed to a series of concentrations in liquid medium.
Assay [2] deals with P. aeruginosa PAO1. Description: MIC determination, broth microdilution (CLSI). As to conditions: Pseudomonas aeruginosa, PAO1, strain 6.
In assay [3] the test system is A. baumannii ATCC15308. The assay can be described thus: MIC determination, broth microdilution (CLSI). The conditions noted are these: Acinetobacter baumannii, ATCC15308, strain 9.
Assay [4] deals with C. freundii K21/3034. Description: MIC determination, broth microdilution (CLSI). The conditions noted are these: Citrobacter freundii, K21/3034, strain 4.
For assay [5], the system named is P. aeruginosa 2297 (AmpC wt). Description: MIC determination, broth microdilution (CLSI). The conditions noted are these: Pseudomonas aeruginosa, strain 7.
Assay [6] deals with E. coli J62-TEM-3. The assay can be described thus: MIC determination, broth microdilution (CLSI). As to conditions: Escherichia coli, J62TEM3, read-out: MIC strain 18 (E. coli J62-TEM-3), strain 18; broth microdilution.
Assay [7] relates to H. influenzae ATCC 49247. The assay can be described thus: MIC determination, broth microdilution (CLSI). The conditions noted are these: Haemophilus influenzae, ATCC49247, strain 12; broth microdilution; read-out: MIC strain 12 (H. influenzae ATCC 49247).
Assay [8] has as its system K. pneumoniae 60. The assay can be described thus: MIC determination, broth microdilution (CLSI). The conditions noted are these: Klebsiella pneumoniae, 60, strain 2.
The subject of assay [9] is B. fragilis 6688. The assay can be described thus: MIC determination, broth microdilution (CLSI). The conditions noted are these: Bacteroides fragilis, 6688, strain 15; broth microdilution; read-out: MIC strain 15 (B. fragilis 6688).
For assay [10], the system named is C. perfringens DSM756. Description: microbe, parasite or virus in culture. As to conditions: Clostridium perfringens, DSM756, read-out: MIC strain 16 (C. perfringens DSM756), strain 16; broth microdilution.
Assay [11] deals with Bacteria. Description: MIC determination in combination with β-lactamase inhibitors (constant 4 μg/mL).
The subject of assay [12] is S. pneumoniae 113. Description: MIC determination, broth microdilution (CLSI). As to conditions: Streptococcus pneumoniae, 113, strain 13; broth microdilution; read-out: MIC strain 13 (S. pneumoniae 113).
The test system of assay [13] is S. aureus 133. The assay can be described thus: MIC determination, broth microdilution (CLSI).
Assay [14] deals with E. coli ATCC25922. Description: MIC determination, broth microdilution (CLSI). The conditions noted are these: for MIC: Escherichia coli, ATCC25922, strain 1.
For assay [15], the system named is E. cloacae 34654. Description: MIC determination, broth microdilution (CLSI). The conditions noted are these: Enterobacter cloacae, 34654, strain 3.
Assay [16] relates to E. coli J62. Description: MIC determination, broth microdilution (CLSI). The conditions noted are these: Escherichia coli, J62, strain 17; broth microdilution; read-out: MIC strain 17 (E. coli J62).
Assay [17] relates to P. aeruginosa 2297-con (AmpC derepressed). Description: MIC determination, broth microdilution (CLSI). As to conditions: Pseudomonas aeruginosa, read-out: strain 8 MIC, strain 8.
In assay [18] the test system is S. maltophilia ICB7569. Description: MIC determination, broth microdilution (CLSI). As to conditions: Stenotrophomonas maltophilia, ICB7569, strain 10.
[19] abbreviates: Staphylococcus aureus, 133, strain 11, read-out: strain 11 MIC.
[20] abbreviates: Staphylococcus aureus, 133, strain 14, broth microdilution, read-out: MIC strain 14 (S. aureus 133).

In the case of `C[C@H]1[C@H](NC(=O)/C(=N\OCCOc2ccc(C(=N)N)cc2)c2csc(N)n2)C(=O)N1OS(=O)(=O)O` [Example 47, (2Z)-2-(2-Amino-1,3-thiazol-4-yl)-2-{[2-(4-carbamimidoylphenoxy)ethoxy]imino}-N-[(2S,3S)-2-methyl-4-oxo-1-(sulfooxy)azetidin-3-yl]ethanamide], the MIC in assay [1] is 2 µg/mL (≈ 3.79 µM); in [2], 4 µg/mL (≈ 7.58 µM); in assay [3] it was 2 µg/mL (≈ 3.79 µM); in assay [4], 0.5 µg/mL (≈ 0.948 µM); in [5] it was 2 µg/mL (≈ 3.79 µM); in assay [6] it was 32 µg/mL (≈ 60.7 µM). The MIC is 0.125 µg/mL (≈ 0.237 µM) in assay [7]; 0.5 µg/mL (≈ 0.948 µM) in [8]; 16 µg/mL (≈ 30.3 µM) in [9]; 1 µg/mL (≈ 1.9 µM) in assay [10]; 0.125 µg/mL (≈ 0.237 µM) in [12]; at most 0.063 µg/mL in [13] (setting [19]). Also, the MIC in assay [13] (setting [20]) worked out at 1 µg/mL (≈ 1.9 µM); in assay [14] it was 0.25 µg/mL (≈ 0.474 µM); in assay [15], 1 µg/mL (≈ 1.9 µM); in [16], 0.5 µg/mL (≈ 0.948 µM). Further, in assay [11], the “MIC strain 19 (E. coli J62-TEM-3 + 4 μg/mL clavulanic acid)” value was 0.5 µg/mL. For the same compound, in [11], the “MIC strain 20 (E. coli J62-TEM-3 + 4 μg/mL sulbactam)” value was found to be 0.5 µg/mL. Also, in assay [11], the “MIC strain 21 (E. coli J62-TEM-3 + 4 μg/mL tazobactam)” value was 0.5 µg/mL.

With `CC1(C)[C@H](NC(=O)/C(=N\OCCCOc2ccc(C(=N)N)cc2)c2csc(N)n2)C(=O)N1OS(=O)(=O)O` [Example 58, (2Z)-2-(2-Amino-1,3-thiazol-4-yl)-2-{[3-(4-carbamimidoylphenoxy)propoxy]imino}-N-[(3S)-2,2-dimethyl-4-oxo-1-(sulfooxy)azetidin-3-yl]ethanamide], the MIC in assay [1] stood at 1 µg/mL (≈ 1.8 µM); in assay [2], 16 µg/mL (≈ 28.8 µM); in [3] it was 16 µg/mL (≈ 28.8 µM); in assay [17] it was 16 µg/mL (≈ 28.8 µM); in assay [4] it was 1 µg/mL (≈ 1.8 µM); in assay [5], 32 µg/mL (≈ 57.6 µM). The MIC in assay [6] was 32 µg/mL (≈ 57.6 µM); in [7] it was 0.5 µg/mL (≈ 0.9 µM); in assay [8] it was 4 µg/mL (≈ 7.2 µM); in assay [9], 4 µg/mL (≈ 7.2 µM); in assay [10] it was 4 µg/mL (≈ 7.2 µM); in assay [12] it was at most 0.063 µg/mL. The MIC in assay [13] (setting [19]) is at most 0.063 µg/mL; in [13] (setting [20]), 4 µg/mL (≈ 7.2 µM); in assay [14], 2 µg/mL (≈ 3.6 µM); in assay [15] it was 4 µg/mL (≈ 7.2 µM); in [16] it was 4 µg/mL (≈ 7.2 µM). Besides, in [11], the “MIC strain 19 (E. coli J62-TEM-3 + 4 μg/mL clavulanic acid)” value stood at 2 µg/mL. In addition, in [11], the “MIC strain 20 (E. coli J62-TEM-3 + 4 μg/mL sulbactam)” value is 2 µg/mL. In assay [11], the “MIC strain 21 (E. coli J62-TEM-3 + 4 μg/mL tazobactam)” value worked out at 2 µg/mL.

`CC1(C)[C@H](NC(=O)/C(=N\OCCOc2ccc(C(=N)N)cc2)c2csc(N)n2)C(=O)N1OCS(=O)(=O)O` [Example 90]: the MIC in assay [1] was determined as 0.5 µg/mL (≈ 0.9 µM); in assay [2] it was 32 µg/mL (≈ 57.6 µM); in [17], 32 µg/mL (≈ 57.6 µM); in assay [4], 0.25 µg/mL (≈ 0.45 µM); in assay [5], 32 µg/mL (≈ 57.6 µM); in [6], 0.5 µg/mL (≈ 0.9 µM). Further, the MIC in assay [7] was determined as 0.5 µg/mL (≈ 0.9 µM); in assay [9], 4 µg/mL (≈ 7.2 µM); in [18], 4 µg/mL (≈ 7.2 µM); in [10] it was 16 µg/mL (≈ 28.8 µM); in assay [12], 0.5 µg/mL (≈ 0.9 µM); in [13] (setting [19]), 0.5 µg/mL (≈ 0.9 µM). In addition, the MIC in assay [14] worked out at 0.5 µg/mL (≈ 0.9 µM); in assay [15], 1 µg/mL (≈ 1.8 µM); in assay [16], 1 µg/mL (≈ 1.8 µM). Further, the “MIC strain 19 (E. coli J62-TEM-3 + 4 μg/mL clavulanic acid)” value in assay [11] came out at 0.5 µg/mL. For the same compound, the “MIC strain 20 (E. coli J62-TEM-3 + 4 μg/mL sulbactam)” value in [11] came out at 0.5 µg/mL. The “MIC strain 21 (E. coli J62-TEM-3 + 4 μg/mL tazobactam)” value in assay [11] was determined as 1 µg/mL.

Take `CC1(C)[C@H](NC(=O)/C(=N\O[C@@H](COc2ccc(C(=N)NCc3ncc[nH]3)cc2)C(=O)O)c2csc(N)n2)C(=O)N1OS(=O)(=O)O` [Example 104, (2S)-2-({[(1Z)-1-(2-Amino-1,3-thiazol-4-yl)-2-{[(3S)-2,2-dimethyl-4-oxo-1-(sulfooxy)azetidin-3-yl]amino}-2-oxoethylidene]amino}oxy)-3-{4-[N-(1H-imidazol-2-ylmeth-yl)carbamimidoyl]phenoxy}propanoic acid]: the MIC in [1] was 0.5 µg/mL (≈ 0.751 µM); in assay [2] it was 16 µg/mL (≈ 24 µM); in assay [4] it was 1 µg/mL (≈ 1.5 µM); in assay [6], 32 µg/mL (≈ 48.1 µM); in assay [7], at most 0.063 µg/mL; in [8] it was 1 µg/mL (≈ 1.5 µM). Besides, the MIC in assay [18] was 16 µg/mL (≈ 24 µM); in assay [10], 8 µg/mL (≈ 12 µM); in assay [12], 1 µg/mL (≈ 1.5 µM); in [13] (setting [19]), at most 0.063 µg/mL; in [15] it was 1 µg/mL (≈ 1.5 µM); in assay [16], 1 µg/mL (≈ 1.5 µM). The “MIC strain 19 (E. coli J62-TEM-3 + 4 μg/mL clavulanic acid)” value in assay [11] amounted to 1 µg/mL. Further, the “MIC strain 20 (E. coli J62-TEM-3 + 4 μg/mL sulbactam)” value in assay [11] was found to be 1 µg/mL. Also, in assay [11], the “MIC strain 21 (E. coli J62-TEM-3 + 4 μg/mL tazobactam)” value came out at 1 µg/mL. Besides, the “strain 1 MIC” value in [14] (strain 1) was 1 µg/mL.
